Measured values taken from patent US9044016B2, “N-thio-anthranilamide compounds and their use as pesticides” (BASF SE, priority 2011, dated 2015).

Tests used:
Type in all cases: in vivo
[1] = system: Mediterranean Fruitfly (Ceratitis capitata); assay: CE.3 Mediterranean fruitfly, comparison with prior art compounds; settings: 5 days; for Mediterranean fruitfly egg and larval mortality vs. untreated control (%): sprayed onto insect diet with eggs
Experimental: (§1) The activity summarized in the tables hereinbelow are given as percentage of mortality in comparison with untreated control
(§2) For evaluating control of Mediterranean fruitfly (Ceratitis capitata) the test unit consisted of microtiter plates containing an insect diet and 50-80 C. capitata eggs.
(§3) The compounds were formulated using a solution containing 75% v/v water and 25% v/v DMSO. Different concentrations of formulated compounds were sprayed onto the insect diet at 5 μl, using a custom built micro atomizer, at two replications.
After application, microtiter plates were incubated at about 28±1° C. and about 80±5% relative humidity for 5 days. Egg and larval mortality was then visually assessed.

[2] = system: Western Corn Rootworm (Diabrotica virgifera virgifera); assay: CE.2 Western corn rootworm assay, treated soil; settings: second-instar larvae, 3 days after infestation
Experimental: as §1
The active compound was applied in acetone at rates of 5 and 50 ppm a.i./soil (w/w). Treatments were applied in solution to sifted, North Carolina loamy sand (Sandhill soil) in a plastic bag. Treatments were thoroughly incorporated by sealing and shaking each bag by hand and allowing the solution to soak through the soil mass for at least 10 minutes before unsealing. The bags were then kept open in a fume hood overnight to evaporate the solvent from the soil.
One day after treatment (DAT) distilled water for moisture and water-soaked millet seed (Panicum miliaceum ‘white millet’) as a food source were added to each bag and mixed in thoroughly. 11 cm^3 of millet and soil mixture were dispensed into a 1 oz. plastic cup. Each cup was infested with 10 western corn rootworm second-instar larvae. Each cup or group of four cells was a replicate, and replication was 3×. The test was maintained in incubators at 26° C. in the dark. Mortality was evaluated 3 days after infestation (DAI) and mean percent mortality was calculated.

[3] = system: Mediterranean Fruitfly (Ceratitis capitata); assay: B.4 Mediterranean fruitfly, insect diet with eggs in microtiter plates; settings: 120 h, egg and larval mortality, 5 days, read-out: mortality in comparison with untreated controls
Experimental: as §2, §3
(§4) After application, microtiter plates were incubated at about 28+1° C. and about 80+5% relative humidity for 5 days. Egg and larval mortality was then visually assessed.

[4] = system: Orchid Thrips (Dichromothrips Corbetti); assay: B.5 Orchid thrips, floral-immersion technique; settings: dipped orchid flowers, adult thrips, 72 hours after treatment, read-out: mortality in comparison with untreated controls
Experimental: Dichromothrips corbetti adults used for bioassay were obtained from a colony maintained continuously under laboratory conditions. For testing purposes, the test compound is diluted in a 1:1 mixture of acetone:water (vol:vol), plus 0.01% vol/vol Alkamuls® EL 620 surfactant.
Thrips potency of each compound was evaluated by using a floral-immersion technique. Plastic petri dishes were used as test arenas. All petals of individual, intact orchid flowers were dipped into treatment solution and allowed to dry. Treated flowers were placed into individual petri dishes along with about 20 adult thrips. The petri dishes were then covered with lids. All test arenas were held under continuous light and a temperature of about 28° C. for duration of the assay. After 3 days, the numbers of live thrips were counted on each flower, and along inner walls of each petri dish. The percentmortality was recorded 72 hours after treatment.

[5] = system: Diamond Back Moth (Plutella xylostella); assay: B.2 Diamond back moth, cabbage leaf dip; settings: foliar, dipped cabbage leaves, 3rd instar larvae, 72 hours after treatment, read-out: mortality in comparison with untreated controls
Experimental: The active compound is dissolved at the desired concentration in a mixture of 1:1 (vol:vol) distilled water:aceteone. Surfactant (Alkamuls® EL 620) is added at a rate of 0.1% (vol/vol).The test solution is prepared at the day of use.
Leaves of cabbage were dipped in test solution and air-dried. Treated leaves were placed in petri dish eslined with moist filter paper and inoculated with ten 3rd instar larvae. Mortality was recorded 72 hours after treatment. Feeding damages were also recorded using a scale of 0-100%.

[6] = system: Green Peach Aphid (Myzus persicae); assay: B.3 Green peach aphid, systemic, artificial diet in 96-well plates; settings: 72 h, adult aphids, 3 days, read-out: mortality in comparison with untreated controls
Excerpt: For evaluating control of green peach aphid (Myzus persicae) through systemic means the test unit consisted of 96-well-microtiter plates containing liquid artificial diet under an artificial membrane.
The compounds were formulated using a solution containing 75% v/v water and 25% v/v DMSO. Different concentrations of formulated compounds were pipetted into the aphid diet, using a custom built pipetter, at two replications.
After application, 5 to 8 adult aphids were placed on the artificial membrane inside the microtiter plate wells. The aphids were then allowed to suck on the treated aphid diet and incubated at about 23+1° C. and about 50+5% relative humidity for 3 days. Aphid mortality and fecundity was then visually assessed.

[7] = system: Vetch Aphid (Megoura Viciae); assay: B.7 Vetch aphid, broad bean leaf disks in 24-well plates; settings: foliar, 120 h, sprayed leaf disks, adult aphids, 5 days, read-out: mortality in comparison with untreated controls
Experimental: For evaluating control of vetch aphid (Megoura viciae) through contact or systemic means the test unit consisted of 24-well-microtiter plates containing broad bean leaf disks.
The compounds were formulated using a solution containing 75% v/v water and 25% v/v DMSO. Different concentrations of formulated compounds were sprayed onto the leaf disks at 2.5 μl, using a custom built micro atomizer, at two replications.
After application, the leaf disks were air-dried and 5 to 8 adult aphids placed on the leaf disks inside the microtiter plate wells. The aphids were then allowed to suck on the treated leaf disks and incubated at about 23+1° C. and about 50+5% relative humidity for 5 days. Aphid mortality and fecundity was then visually assessed.

[8] = system: Boll Weevil (Anthonomus grandis); assay: B.9 Boll weevil, insect diet with eggs in 96-well plates; settings: 120 h, egg and larval mortality, 5 days, read-out: mortality in comparison with untreated controls
Experimental: For evaluating control of boll weevil (Anthonomus grandis) the test unit consisted of 96-well-microtiter plates containing an insect diet and 5-10 A. grandis eggs.
as §3
After application, microtiter plates were incubated at about 25+1° C. and about 75+5% relative humidity for 5 days. Egg and larval mortality was then visually assessed.

[9] = system: Cowpea Aphid (Aphis craccivora); assay: CE.1 Cowpea aphid, comparison with prior art compounds; settings: for % activity (mortality of Cowpea aphid in %, vs. untreated control): sprayed cowpea plants, assessed after 72 hours
Experimental: as §1
The active compound was dissolved at the desired concentration in a mixture of 1:1 (vol:vol) distilled water:acetone. Surfactant (Alkamuls® EL 620) is added at a rate of 0.1% (vol/vol). The test solution was prepared at the day of use.
(§5) Potted cowpea plants were colonized with approximately 50 to 100 aphids of various stages by manually transferring a leaf tissue cut from infested plant 24 hours before application. Plants were sprayed after the pest population has been recorded. Treated plants are maintained on light carts at about 28° C. Percent mortality was assessed after 72 hours.

[10] = system: Tobacco Budworm (Heliothis virescens); assay: B.8 Tobacco budworm I, insect diet with eggs in 96-well plates; settings: 120 h, egg and larval mortality, 5 days, read-out: mortality in comparison with untreated controls
Experimental: For evaluating control of tobacco budworm (Heliothis virescens) the test unit consisted of 96-well-microtiter plates containing an insect diet and 15-25 H. virescens eggs.
The compounds were formulated using a solution containing 75% v/v water and 25% v/v DMSO. Different concentrations of formulated compounds were sprayed onto the insect diet at 10 μl, using a custom built micro atomizer, at two replications.
as §4

[11] = system: Cowpea Aphid (Aphis craccivora); assay: B.1 Cowpea aphid, sprayed potted cowpea plants; settings: assessed after 72 hours, read-out: mortality in comparison with untreated controls
Experimental: The active compound is dissolved at the desired concentration in a mixture of 1:1 (vol:vol) distilled water:acetone. Surfactant (Alkamuls® EL 620) is added at a rate of 0.1% (vol/vol). The test solution is prepared at the day of use.
as §5

SMILES	activity against Mediterranean fruitfly in comparison with comparative compound CC-1 ([1]; egg and larval mortality)	% activity (mortality of Western corn rootworm in %, vs. untreated control) ([2]; 5 ppm a.i./soil (w/w))	% activity (mortality of Western corn rootworm in %, vs. untreated control) ([2]; 50 ppm a.i./soil (w/w))	mortality at 2500 ppm [3]	mortality at 300 ppm [4]	mortality at 300 ppm [5]	mortality at 2500 ppm [6]	mortality at 2500 ppm [7]	Mediterranean fruitfly egg and larval mortality vs. untreated control (%) ([1]; 1415 ppm active ingredient)	Mediterranean fruitfly egg and larval mortality vs. untreated control (%) ([1]; 2500 ppm active ingredient)	mortality at 2500 ppm [8]	% activity (mortality of Cowpea aphid in %, vs. untreated control) ([9]; 100 ppm active ingredient)	% activity (mortality of Cowpea aphid in %, vs. untreated control) ([9]; 300 ppm active ingredient)	% activity (mortality of Cowpea aphid in %, vs. untreated control) ([9]; 500 ppm active ingredient)	activity against Cowpea aphid in comparison with comparative compound CC-3 ([9]; percent mortality after 72 hours)	mortality at 2500 ppm [10]	mortality at 300 ppm [11]
O=C(N=S1CCCC1)c1cc(Cl)cc(Cl)c1NC(=O)c1cc(C(F)(F)F)nn1-c1ncccc1Cl [S.3, 2-(3-chloro-2-pyridyl)-N-[2,4-dichloro-6-[(tetrahydro-λ^4-thiophenidene)carbamoyl]phenyl]-5-(trifluoromethyl)pyrazole-3-carboxamide]	superior activity	–	–	–	–	–	–	–	–	–	–	–	–	–	–	–	–
CCS(CC)=NC(=O)c1cc(Cl)cc(C)c1NC(=O)c1cc(C(F)(F)F)nn1-c1ncccc1Cl [CC-2, reference compound]	–	21%	93%	–	–	–	–	–	–	–	–	–	–	–	–	–	–
CC(C)S(=NC(=O)c1cc(Cl)cc(Cl)c1NC(=O)c1cc(C(F)(F)F)nn1-c1ncccc1Cl)C(C)C [S.1, 2-(3-chloro-2-pyridyl)-N-[2,4-dichloro-6-[(bis-2-propyl-λ^4-sulfanylidene)carbamoyl]phenyl]-5-(trifluoromethyl)pyrazole-3-carboxamide]	–	100%	100%	> 75%	> 75%	> 75%	> 75%	> 75%	100%	100%	> 95%	100%	100%	100%	superior activity	> 75%	> 75%
CCS(CC)=NC(=O)c1cc(Cl)cc(Cl)c1NC(=O)c1cc(C(F)(F)F)nn1-c1ncccc1Cl [S.6, N-[4,6-dichloro-2-[(diethyl-λ^4-sulfanylidene)carbamoyl]-phenyl]-2-(3-chloro-2-pyridyl)-5-(trifluoromethyl)pyrazole-3-carboxamide]	–	100%	100%	–	> 75%	> 75%	> 75%	> 75%	–	–	> 95%	–	–	–	–	> 75%	> 75%
